Source: patent publication US12643882B2, “Inhibitors of human respiratory syncytial virus and metapneumovirus” (priority 2022, dated 2026)
Where two headings read alike, the source gives them in different places.

How the values were obtained:
[1] = system: hMPV-GFP virus; assay: microbe, parasite or virus in culture; type: cell-based, human metapneumovirus
Summary of the method: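 VERO cells infected with GFP-expressing hMPV at MOI 1.25 were incubated 48 h at 37 °C with compound in 10-point 3-fold dilutions (typically 40,300–2 nM final). GFP-positive cells were counted by imaging. Same-well CellTiter-Glo gave cytotoxicity, and IC50/CC50 came from 4-parameter logistic fits.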

[2] = system: RSV-A2-GFP virus; assay: microbe, parasite or virus in culture; type: cell-based, Human Respiratory Syncytial Virus
Summary of the method: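 Assay-ready frozen Calu-1 cells at 20,000 cells/mL were infected with recombinant RSV-A2-GFP (MOI 1.2) in DMEM with 2% FBS. Cells were exposed to 10-point 3-fold compound dilutions for 96 h at 37° C. GFP-positive cells were counted by imaging, with same-well CellTiter-Glo for cytotoxicity, and IC50 and CC50 came from 4-parameter logistic fits.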

[3] = human metapneumovirus, Vero, 48 h, read-out: hMPV EC50, VERO cells infected with hMPV-GFP, 48 hrs, GFP-expressing cells counted
[4] = human respiratory syncytial virus, Calu-1, 96 h, read-out: RSV EC50, Calu-1 cells infected with RSV-A2-GFP, 96 hrs, GFP-expressing cells counted
[5] = VERO cells infected with hMPV-GFP, 48 hrs, GFP-expressing cells counted, read-out: hMPV EC50
[6] = Calu-1 cells infected with RSV-A2-GFP, 96 hrs, GFP-expressing cells counted, read-out: RSV EC50

Row | Compound | EC50 [1, 3] [nM] | EC50 [2, 4] [nM] | EC50 [1, 5] [nM] | EC50 [2, 6] [nM]
1 | Cn1nc(-c2ncccn2)cc1C(=O)N1C[C@@H]2[C@H](C1)[C@H]2Oc1cc(C(C)(C)N)cc(-n2ccc3c(F)cccc32)n1 [Example 60, ((1R,5S,6s)-6-((4-(2-aminopropan-2-yl)-6-(4-fluoro-1H-indol-1-yl)pyridin-2-yl)oxy)-3-azabicyclo[3.1.0]hexan-3-yl)(1-methyl-3-(pyrimidin-2-yl)-1H-pyrazol-5-yl)methanone] | 10 to 100 | < 10 |  | 
2 | Cc1nn(-c2ncccn2)cc1C(=O)N1C[C@@H]2[C@H](C1)[C@H]2Oc1cc(C(C)(C)N)cc(-c2ccc(F)cc2)n1 [Example 61, ((1R,5S,6s)-6-((4-(2-aminopropan-2-yl)-6-(4-fluorophenyl)pyridin-2-yl)oxy)-3-azabicyclo[3.1.0]hexan-3-yl)(3-methyl-1-(pyrimidin-2-yl)-1H-pyrazol-4-yl)methanone] | > 100 | < 10 |  | 
3 | COc1nn(-c2ncccn2)cc1C(=O)N1C[C@@H]2[C@H](C1)[C@H]2Oc1cc(C(C)(C)N)cc(-c2ccc(F)cc2)n1 [Example 62, ((1R,5S,6s)-6-((4-(2-aminopropan-2-yl)-6-(4-fluorophenyl)pyridin-2-yl)oxy)-3-azabicyclo[3.1.0]hexan-3-yl)(3-methoxy-1-(pyrimidin-2-yl)-1H-pyrazol-4-yl)methanone] | > 100 | < 10 |  | 
4 | CC(C)(N)c1cc(O[C@H]2[C@@H]3CN(C(=O)c4cnn(-c5ncccn5)c4)C[C@@H]32)nc(-c2ccc(F)cc2)c1 [Example 63, ((1R,5S,6s)-6-((4-(2-aminopropan-2-yl)-6-(4-fluorophenyl)pyridin-2-yl)oxy)-3-azabicyclo[3.1.0]hexan-3-yl)(1-(pyrimidin-2-yl)-1H-pyrazol-4-yl)methanone] |  |  | > 100 | < 10
5 | CCc1nn(-c2ncccn2)cc1C(=O)N1C[C@@H]2[C@H](C1)[C@H]2Oc1cc(C(C)(C)N)cc(-c2ccc(F)cc2)n1 [Example 64, ((1R,5S,6s)-6-((4-(2-aminopropan-2-yl)-6-(4-fluorophenyl)pyridin-2-yl)oxy)-3-azabicyclo[3.1.0]hexan-3-yl)(3-ethyl-1-(pyrimidin-2-yl)-1H-pyrazol-4-yl)methanone] |  |  | > 100 | < 10
6 | CC(C)(N)c1cc(O[C@H]2[C@@H]3CN(C(=O)c4cn(-c5ncccn5)nc4C4CC4)C[C@@H]32)nc(-c2ccc(F)cc2)c1 [Example 65, ((1R,5S,6s)-6-((4-(2-aminopropan-2-yl)-6-(4-fluorophenyl)pyridin-2-yl)oxy)-3-azabicyclo[3.1.0]hexan-3-yl)(3-cyclopropyl-1-(pyrimidin-2-yl)-1H-pyrazol-4-yl)methanone] |  |  | > 100 | < 10
7 | CC(C)(N)c1cc(O[C@H]2[C@@H]3CN(C(=O)c4cn(-c5ncccn5)nc4C(F)F)C[C@@H]32)nc(-c2ccc(F)cc2)c1 [Example 66, ((1R,5S,6s)-6-((4-(2-aminopropan-2-yl)-6-(4-fluorophenyl)pyridin-2-yl)oxy)-3-azabicyclo[3.1.0]hexan-3-yl)(3-(difluoromethyl)-1-(pyrimidin-2-yl)-1H-pyrazol-4-yl)methanone] |  |  | > 100 | < 10
8 | CC(C)(N)c1cc(O[C@H]2[C@@H]3CN(C(=O)c4cn(-c5ncccn5)nc4C(F)(F)F)C[C@@H]32)nc(-c2ccc(F)cc2)c1 [Example 67, ((1R,5S,6s)-6-((4-(2-aminopropan-2-yl)-6-(4-fluorophenyl)pyridin-2-yl)oxy)-3-azabicyclo[3.1.0]hexan-3-yl)(1-(pyrimidin-2-yl)-3-(trifluoromethyl)-1H-pyrazol-4-yl)methanone] |  |  | > 100 | < 10
9 | CCOc1nn(-c2ncccn2)cc1C(=O)N1C[C@@H]2[C@H](C1)[C@H]2Oc1cc(C(C)(C)N)cc(-c2ccc(F)cc2)n1 [Example 68, ((1R,5S,6s)-6-((4-(2-aminopropan-2-yl)-6-(4-fluorophenyl)pyridin-2-yl)oxy)-3-azabicyclo[3.1.0]hexan-3-yl)(3-ethoxy-1-(pyrimidin-2-yl)-1H-pyrazol-4-yl)methanone] |  |  | > 100 | < 10
10 | CC(C)(N)c1cc(O[C@H]2[C@@H]3CN(C(=O)c4cn(-c5ncccn5)nc4OC(F)F)C[C@@H]32)nc(-c2ccc(F)cc2)c1 [Example 69, ((1R,5S,6s)-6-((4-(2-aminopropan-2-yl)-6-(4-fluorophenyl)pyridin-2-yl)oxy)-3-azabicyclo[3.1.0]hexan-3-yl)(3-(difluoromethoxy)-1-(pyrimidin-2-yl)-1H-pyrazol-4-yl)methanone] |  |  | > 100 | < 10
11 | CC(C)(N)c1cc(O[C@H]2[C@@H]3CN(C(=O)c4cn(-c5ncccn5)nc4N)C[C@@H]32)nc(-c2ccc(F)cc2)c1 [Example 70, (3-amino-1-(pyrimidin-2-yl)-1H-pyrazol-4-yl)((1R,5S,6s)-6-((4-(2-aminopropan-2-yl)-6-(4-fluorophenyl)pyridin-2-yl)oxy)-3-azabicyclo[3.1.0]hexan-3-yl)methanone] |  |  | > 100 | < 10
12 | Cc1nn(-c2ncc(F)cn2)cc1C(=O)N1C[C@@H]2[C@H](C1)[C@H]2Oc1cc(C(C)(C)N)cc(-c2ccc(F)cc2)n1 [Example 71, ((1R,5S,6s)-6-((4-(2-aminopropan-2-yl)-6-(4-fluorophenyl)pyridin-2-yl)oxy)-3-azabicyclo[3.1.0]hexan-3-yl)(1-(5-fluoropyrimidin-2-yl)-3-methyl-1H-pyrazol-4-yl)methanone] |  |  | > 100 | < 10
13 | Cc1ccnc(-n2cc(C(=O)N3C[C@@H]4[C@H](C3)[C@H]4Oc3cc(C(C)(C)N)cc(-c4ccc(F)cc4)n3)c(C)n2)n1 [Example 72, ((1R,5S,6s)-6-((4-(2-aminopropan-2-yl)-6-(4-fluorophenyl)pyridin-2-yl)oxy)-3-azabicyclo[3.1.0]hexan-3-yl)(3-methyl-1-(4-methylpyrimidin-2-yl)-1H-pyrazol-4-yl)methanone] |  |  | > 100 | < 10
14 | Cc1nn(-c2ncccn2)c(C)c1C(=O)N1C[C@@H]2[C@H](C1)[C@H]2Oc1cc(C(C)(C)N)cc(-c2ccc(F)cc2)n1 [Example 73, ((1R,5S,6s)-6-((4-(2-aminopropan-2-yl)-6-(4-fluorophenyl)pyridin-2-yl)oxy)-3-azabicyclo[3.1.0]hexan-3-yl)(3,5-dimethyl-1-(pyrimidin-2-yl)-1H-pyrazol-4-yl)methanone] |  |  | > 100 | < 10
15 | Cc1nc(-c2ncccn2)[nH]c1C(=O)N1C[C@@H]2[C@H](C1)[C@H]2Oc1cc(C(C)(C)N)cc(-c2ccc(F)cc2)n1 [Example 75, ((1R,5S,6s)-6-((4-(2-aminopropan-2-yl)-6-(4-fluorophenyl)pyridin-2-yl)oxy)-3-azabicyclo[3.1.0]hexan-3-yl)(4-methyl-2-(pyrimidin-2-yl)-1H-imidazol-5-yl)methanone] |  |  | > 100 | 10 to 100
16 | Cc1nn(-c2ncccn2)nc1C(=O)N1C[C@@H]2[C@H](C1)[C@H]2Oc1cc(C(C)(C)N)cc(-c2ccc(F)cc2)n1 [Example 76, ((1R,5S,6s)-6-((4-(2-aminopropan-2-yl)-6-(4-fluorophenyl)pyridin-2-yl)oxy)-3-azabicyclo[3.1.0]hexan-3-yl)(5-methyl-2-(pyrimidin-2-yl)-2H-1,2,3-triazol-4-yl)methanone] |  |  | > 100 | 10 to 100
